Drawing on ChEMBL document CHEMBL1157233, “5,6:8,9-diepoxy and other cytotoxic sterols from the marine sponge Homaxinella sp” (2006), this text covers EC50 for 14 molecules.

What all share (format): functional
Holding throughout (settings): read-out: ED50 (the source's name)

One experiment has as its system HCT-15. Put plainly: Cytotoxicity against human HCT15 cells.
In the next experiment the test system is A549. Briefly: Cytotoxicity against human A549 cells.
A further experiment has as its system SK-OV-3. Put plainly: Cytotoxicity against human SKOV3 cells.
In a further experiment the test system is SK-MEL-2. Put plainly: Cytotoxicity against human SK-MEL-2 cells.
In another experiment the test system is XF498. Put plainly: Cytotoxicity against human XF498 cells.

Structures are written as SMILES. Values after ≈ are worked out from the molar mass of the structure shown. Bounds are passed on as bounds.

`CC[C@@H](/C=C/[C@@H](C)[C@H]1CC[C@H]2C3=C[C@@H](OC)[C@@]4(O)C[C@@H](O)CC[C@]4(C)[C@H]3CC[C@]12C)C(C)C`: the EC50 is 4.9 mg/L (≈ 10.7 µM) with HCT-15; 4.4 mg/L (≈ 9.59 µM) with A549; 7 mg/L (≈ 15.3 µM) with SK-OV-3; 5.2 mg/L (≈ 11.3 µM) in the experiment on SK-MEL-2; 3.8 mg/L (≈ 8.28 µM) in the experiment on XF498.

As for `CC(C)[C@H](C)/C=C/[C@@H](C)[C@H]1CC[C@H]2C3=C[C@@H](O)[C@@]4(O)C[C@@H](O)CC[C@]4(C)[C@H]3CC[C@]12C`, the EC50 with HCT-15, with A549, in the experiment on SK-OV-3, with SK-MEL-2 and in the experiment on XF498 was more than 5 mg/L in each case.

Turning to `CO[C@@H]1C=C2[C@@H]3CC[C@H]([C@H](C)/C=C/CC(C)C)[C@@]3(C)CC[C@@H]2[C@@]2(C)CC[C@H](O)C[C@]12O`, the EC50 with HCT-15 stood at 4.2 mg/L (≈ 9.75 µM); with A549, 4.8 mg/L (≈ 11.1 µM); in the experiment on SK-OV-3 it was 7.1 mg/L (≈ 16.5 µM); in the experiment on SK-MEL-2, 3.4 mg/L (≈ 7.89 µM); with XF498, 4 mg/L (≈ 9.29 µM).

Take `CC[C@@H](/C=C/[C@@H](C)[C@H]1CC[C@H]2C3=C[C@@H](O)[C@@]4(O)C[C@@H](O)CC[C@]4(C)[C@@]3(O)CC[C@]12C)C(C)C`: the EC50 in the experiment with HCT-15, in the experiment with A549, with SK-OV-3, in the experiment on SK-MEL-2 and in the experiment on XF498 was more than 5 mg/L in each case.

For the molecule `CC(C)C/C=C/[C@@H](C)[C@H]1CC[C@H]2C3=C[C@@H](O)[C@@]4(O)C[C@@H](O)CC[C@]4(C)[C@H]3CC[C@]12C`, the EC50 with HCT-15, in the experiment on A549, with SK-OV-3, with SK-MEL-2 and in the experiment with XF498 was more than 5 mg/L in each case.

As to `CC(C)C(C)/C=C/[C@@H](C)[C@H]1CC[C@@H]2[C@]1(C)CC[C@@]13O[C@@]21[C@H](O)[C@@H]1O[C@@]12C[C@@H](O)CC[C@]32C` (stereo not given in full), the EC50 in the experiment with HCT-15 is 4.8 mg/L (≈ 10.8 µM); in the experiment with A549 it was 7.1 mg/L (≈ 16 µM); in the experiment with SK-OV-3, 6.3 mg/L (≈ 14.2 µM); with SK-MEL-2, 2.7 mg/L (≈ 6.07 µM); in the experiment on XF498, 3.4 mg/L (≈ 7.65 µM).

As for `CC(C)C/C=C/[C@@H](C)[C@H]1CC[C@H]2C3=C[C@@H](O)[C@@]4(O)C[C@@H](O)CC[C@]4(C)[C@@]3(O)CC[C@]12C`, the EC50 in the experiment with HCT-15, in the experiment on A549, in the experiment on SK-OV-3, in the experiment with SK-MEL-2 and with XF498 was more than 5 mg/L throughout.

As to `CC[C@@H](/C=C/[C@@H](C)[C@H]1CC[C@H]2C3=C[C@@H](O)[C@@]4(O)C[C@@H](O)CC[C@]4(C)[C@H]3CC[C@]12C)C(C)C`, the EC50 with HCT-15, in the experiment on A549, with SK-OV-3, in the experiment on SK-MEL-2 and in the experiment with XF498 was more than 5 mg/L throughout.

As to `CC[C@@H](/C=C/[C@@H](C)[C@H]1CC[C@@H]2[C@]1(C)CC[C@@]13O[C@@]21[C@H](O)[C@@H]1O[C@@]12C[C@@H](O)CC[C@]32C)C(C)C` (relative stereo) [HOMAXISTEROL B2], the EC50 in the experiment on HCT-15 was 1.1 mg/L (≈ 2.4 µM); in the experiment with A549 it was 1.4 mg/L (≈ 3.05 µM); in the experiment with SK-OV-3, 1.3 mg/L (≈ 2.83 µM); in the experiment on SK-MEL-2, 1.1 mg/L (≈ 2.4 µM); with XF498, 1 mg/L (≈ 2.18 µM).

Consider `COc1cccc2c1C(=O)c1c(O)c3c(c(O)c1C2=O)C[C@@](O)(C(=O)CO)C[C@@H]3O[C@H]1C[C@H](N)[C@H](O)[C@H](C)O1` (stereo in doubt) [DOXORUBICIN], for which the EC50 was 0.05 mg/L (≈ 0.092 µM) with HCT-15; 0.01 mg/L (≈ 0.0184 µM) in the experiment with A549; 0.03 mg/L (≈ 0.0552 µM) with SK-OV-3; 0.01 mg/L (≈ 0.0184 µM) in the experiment on SK-MEL-2; 0.01 mg/L (≈ 0.0184 µM) with XF498.

As to `CC(C)[C@@H](C)/C=C/[C@@H](C)[C@H]1CC[C@H]2C3=C[C@@H](O)[C@@]4(O)C[C@@H](O)CC[C@]4(C)[C@H]3CC[C@]12C` [CEREVISTEROL], the EC50 in the experiment with HCT-15 came to 3 mg/L (≈ 6.97 µM); in the experiment on A549 it was 3.9 mg/L (≈ 9.06 µM); with SK-OV-3 it was 6 mg/L (≈ 13.9 µM); in the experiment with SK-MEL-2 it was 2.8 mg/L (≈ 6.5 µM); in the experiment on XF498 it was 3.3 mg/L (≈ 7.66 µM).

As to `CC(C)C/C=C/[C@@H](C)[C@H]1CC[C@@H]2[C@]1(C)CC[C@@]13O[C@@]21[C@H](O)[C@@H]1O[C@@]12C[C@@H](O)CC[C@]32C` [HOMAXISTEROL B1], the EC50 with HCT-15 was found to be 3.2 mg/L (≈ 7.43 µM); in the experiment on A549, 3.9 mg/L (≈ 9.06 µM); with SK-OV-3, 3.5 mg/L (≈ 8.13 µM); in the experiment with SK-MEL-2 it was 3.1 mg/L (≈ 7.2 µM); in the experiment on XF498 it was 3.4 mg/L (≈ 7.9 µM).

In the case of `CC(C)C/C=C/[C@@H](C)[C@H]1CC[C@H]2C3=CC(=O)[C@@]4(O)C[C@@H](O)CC[C@]4(C)[C@@]3(O)CC[C@]12C` [HOMAXISTEROL C1], the EC50 in the experiment on HCT-15 came out at 3.7 mg/L (≈ 8.59 µM); with A549, 5 mg/L (≈ 11.6 µM); with SK-OV-3 it was 7 mg/L (≈ 16.3 µM); in the experiment on SK-MEL-2 it was 3.9 mg/L (≈ 9.06 µM); in the experiment with XF498, 3.7 mg/L (≈ 8.59 µM).

`CC(C)C/C=C/[C@@H](C)[C@H]1CC[C@H]2C3=C[C@H](O)[C@@]4(O)C[C@@H](O)CC[C@]4(C)[C@H]3CC[C@]12C` [HOMAXISTEROL D1]: the EC50 with HCT-15 turned out to be 3.1 mg/L (≈ 7.44 µM); in the experiment with A549, 3.5 mg/L (≈ 8.4 µM); in the experiment on SK-OV-3, 3.9 mg/L (≈ 9.36 µM); in the experiment with SK-MEL-2, 3.1 mg/L (≈ 7.44 µM); in the experiment with XF498 it was 3.1 mg/L (≈ 7.44 µM).
